PubChem BioAssay AID248 (DTP/NCI, 2004)
Values joined by “and” are separate entries in the source; they are usually repeats but may differ in a detail not shown here. Identical values can stand only once. Toxic doses and inconclusive results are not listed. Rule as the data show it: active = T/C of 150% or more; inactive = T/C below 125%.

Test system: L1210 leukemia ip in BDF1 mice, survival T/C
Assay: NCI In Vivo Anticancer Drug Screen. Data for tumor model L1210 Leukemia (intraperitoneal) in B6D2F1 (BDF1) mice
Conditions: higher = longer survival
Method in brief: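 Value reflects the ratio of survival in compound-treated mice to survival in vehicle-treated controls, with both groups carrying the same transplanted tumor.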

[1] = endpoint: mean survival time, dose: 100.0 mg/kg/injection, schedule: Q04DX002 (ip), vehicle: Klucel (hydroxypropylcellulose) (HPC)
[2] = endpoint: mean survival time, dose: 25.0 mg/kg/injection, schedule: Q01DX001 (ip), vehicle: saline with Tween-80
[3] = endpoint: mean survival time, dose: 50.0 mg/kg/injection, schedule: Q01DX001 (ip), vehicle: saline with Tween-80
[4] = endpoint: mean survival time, dose: 100.0 mg/kg/injection, schedule: Q01DX001 (ip), vehicle: saline with Tween-80
[5] = endpoint: mean survival time, dose: 25.0 mg/kg/injection, schedule: Q04DX002 (ip), vehicle: Klucel (hydroxypropylcellulose) (HPC)
[6] = endpoint: mean survival time, dose: 50.0 mg/kg/injection, schedule: Q04DX002 (ip), vehicle: Klucel (hydroxypropylcellulose) (HPC)

Measured: T/C

Cn1cc(N)c(=O)[nH]c1=O
inactive: endpoint: mean survival time, dose: 50.0 mg/kg/injection, schedule: Q01DX001 (ip), vehicle: saline 101 % of control | endpoint: mean survival time, dose: 100.0 mg/kg/injection, schedule: Q01DX001 (ip), vehicle: saline 101 % of control | endpoint: mean survival time, dose: 200.0 mg/kg/injection, schedule: Q01DX001 (ip), vehicle: saline 101 % of control | endpoint: mean survival time, dose: 400.0 mg/kg/injection, schedule: Q01DX001 (ip), vehicle: saline 103 % of control

CCOC(=O)c1ccc(NC(=O)CCCCCCCCC(=O)Nc2ccc(C(=O)OCC)cc2)cc1
inactive: [1] 91 % of control | endpoint: mean survival time, dose: 200.0 mg/kg/injection, schedule: Q04DX002 (ip), vehicle: Klucel (hydroxypropylcellulose) (HPC) 102 % of control | endpoint: mean survival time, dose: 400.0 mg/kg/injection, schedule: Q04DX002 (ip), vehicle: Klucel (hydroxypropylcellulose) (HPC) 95 % of control

N/N=C(/C=N/N)C(O)CO (stereo unspecified)
inactive: [2] 95 % of control | [3] 98 % of control | [4] 89 % of control and 92 % of control | endpoint: mean survival time, dose: 400.0 mg/kg/injection, schedule: Q01DX001 (ip), vehicle: saline with Tween-80 92 % of control

c1cc[c]([Sn]([c]2ccccc2)([CH]2CCCCC2)[CH]2CCCCC2)cc1
inactive: endpoint: mean survival time, dose: 75.0 mg/kg/injection, schedule: Q04DX002 (ip), vehicle: gum acacia 96 % of control | endpoint: mean survival time, dose: 150.0 mg/kg/injection, schedule: Q04DX002 (ip), vehicle: gum acacia 101 % of control | endpoint: mean survival time, dose: 300.0 mg/kg/injection, schedule: Q04DX002 (ip), vehicle: gum acacia 96 % of control

N#CNN=Nc1cc(Cl)c(Cl)c(Cl)c1
inactive: endpoint: mean survival time, dose: 12.0 mg/kg/injection, schedule: Q01DX009 (ip), vehicle: saline 101 % of control | endpoint: mean survival time, dose: 25.0 mg/kg/injection, schedule: Q01DX009 (ip), vehicle: saline 109 % of control | endpoint: mean survival time, dose: 25.0 mg/kg/injection, schedule: Q04DX003 (ip), vehicle: saline 105 % of control | endpoint: mean survival time, dose: 50.0 mg/kg/injection, schedule: Q01DX009 (ip), vehicle: saline 97 % of control and 104 % of control | endpoint: mean survival time, dose: 50.0 mg/kg/injection, schedule: Q04DX003 (ip), vehicle: saline 98 % of control | endpoint: mean survival time, dose: 100.0 mg/kg/injection, schedule: Q04DX003 (ip), vehicle: saline 91 % of control

COC(=O)C(CC/C(=N\Nc1ccc([N+](=O)[O-])cc1[N+](=O)[O-])c1ccccc1)C(=O)OC
inactive: [2] 95 % of control | [3] 88 % of control | [4] 91 % of control

N#CC1(N2CCC3(CC2)OCCO3)CCCCC1
inactive: endpoint: mean survival time, dose: 12.5 mg/kg/injection, schedule: Q01DX009 (ip), vehicle: Klucel (hydroxypropylcellulose) (HPC) 101 % of control | endpoint: mean survival time, dose: 12.5 mg/kg/injection, schedule: Q04DX003 (ip), vehicle: Klucel (hydroxypropylcellulose) (HPC) 91 % of control | endpoint: mean survival time, dose: 25.0 mg/kg/injection, schedule: Q01DX009 (ip), vehicle: Klucel (hydroxypropylcellulose) (HPC) 95 % of control | [5] 107 % of control | endpoint: mean survival time, dose: 25.0 mg/kg/injection, schedule: Q04DX003 (ip), vehicle: Klucel (hydroxypropylcellulose) (HPC) 100 % of control | [6] 96 % of control | [1] 95 % of control

CCOC(=O)/C=C(/CC(=O)OCC)OCC
inactive: endpoint: mean survival time, dose: 50.0 mg/kg/injection, schedule: Q01DX005 (ip), vehicle: saline 104 % of control | endpoint: mean survival time, dose: 100.0 mg/kg/injection, schedule: Q01DX005 (ip), vehicle: saline 94 % of control | endpoint: mean survival time, dose: 200.0 mg/kg/injection, schedule: Q01DX005 (ip), vehicle: saline 96 % of control | endpoint: mean survival time, dose: 400.0 mg/kg/injection, schedule: Q01DX005 (ip), vehicle: saline 100 % of control

OCCC1CC1=C1CC1 (stereo unspecified)
inactive: endpoint: mean survival time, dose: 50.0 mg/kg/injection, schedule: Q01DX009 (ip), vehicle: Klucel (hydroxypropylcellulose) (HPC) 101 % of control | endpoint: mean survival time, dose: 100.0 mg/kg/injection, schedule: Q01DX009 (ip), vehicle: Klucel (hydroxypropylcellulose) (HPC) 98 % of control

N#CCc1ccc(Cl)cc1Cl
inactive: endpoint: mean survival time, dose: 12.5 mg/kg/injection, schedule: Q04DX002 (ip), vehicle: Klucel (hydroxypropylcellulose) (HPC) 97 % of control | [5] 91 % of control | [6] 87 % of control

Nc1ncnc2c1c(-c1ncn[nH]1)cn2C1OC(CO)C(O)C1O (stereo unspecified)
inactive: endpoint: mean survival time, dose: 0.09 mg/kg/injection, schedule: Q01DX009 (ip), vehicle: saline 119 % of control | endpoint: mean survival time, dose: 0.19 mg/kg/injection, schedule: Q01DX009 (ip), vehicle: saline 119 % of control | endpoint: mean survival time, dose: 0.39 mg/kg/injection, schedule: Q01DX005 (ip), vehicle: saline 119 % of control

NC(N)=NN=C(c1ccc(F)cc1)c1ccc(F)cc1
inactive: endpoint: mean survival time, dose: 4.0 mg/kg/injection, schedule: Q01DX Z (oral), vehicle: carboxymethylcellulose (CMC) 111 % of control | endpoint: mean survival time, dose: 8.0 mg/kg/injection, schedule: Q01DX Z (oral), vehicle: carboxymethylcellulose (CMC) 104 % of control | endpoint: mean survival time, dose: 10.0 mg/kg/injection, schedule: Q01DX001 (ip), vehicle: carboxymethylcellulose (CMC) 100 % of control

CSc1ccnc2c1ncn2C1OC(CO)C(O)C1O (stereo unspecified)
inactive: endpoint: mean survival time, dose: 100.0 mg/kg/injection, schedule: Q01DX001 (ip), vehicle: carboxymethylcellulose (CMC) 98 % of control | endpoint: mean survival time, dose: 200.0 mg/kg/injection, schedule: Q01DX001 (ip), vehicle: carboxymethylcellulose (CMC) 104 % of control | endpoint: mean survival time, dose: 400.0 mg/kg/injection, schedule: Q01DX001 (ip), vehicle: carboxymethylcellulose (CMC) 96 % of control

CN=C(NC#N)NCCSCc1nc[nH]c1C
inactive: endpoint: median survival time, dose: 12.0 mg/kg/injection, schedule: Q01DX009 (ip), vehicle: Klucel (hydroxypropylcellulose) (HPC) 100 % of control | endpoint: median survival time, dose: 25.0 mg/kg/injection, schedule: Q01DX009 (ip), vehicle: Klucel (hydroxypropylcellulose) (HPC) 101 % of control | endpoint: median survival time, dose: 50.0 mg/kg/injection, schedule: Q01DX009 (ip), vehicle: Klucel (hydroxypropylcellulose) (HPC) 106 % of control | endpoint: median survival time, dose: 100.0 mg/kg/injection, schedule: Q01DX009 (ip), vehicle: Klucel (hydroxypropylcellulose) (HPC) 106 % of control | endpoint: median survival time, dose: 200.0 mg/kg/injection, schedule: Q01DX009 (ip), vehicle: Klucel (hydroxypropylcellulose) (HPC) 108 % of control | endpoint: median survival time, dose: 400.0 mg/kg/injection, schedule: Q01DX009 (ip), vehicle: Klucel (hydroxypropylcellulose) (HPC) 104 % of control

CC(Br)C1=CC(c2ccccc2)(c2ccccc2)c2ccccc21 (stereo unspecified)
inactive: endpoint: mean survival time, dose: 100.0 mg/kg/injection, schedule: Q04DX003 (ip), vehicle: saline with Tween-80 90 % of control | endpoint: mean survival time, dose: 400.0 mg/kg/injection, schedule: Q04DX003 (ip), vehicle: saline with Tween-80 90 % of control
